{
  "source": "patent US20090258071A1",
  "about": "“COMPOSITIONS AND METHODS FOR PH TARGETED DRUG DELIVERY” (Labopharm, Inc., priority 2006, published 2009)",
  "test": "Dissolution of SN-38 in phosphate buffer pH 6.8",
  "format": "physicochemical",
  "details": "FIG. 4",
  "protocol": "The kinetics of drug release can be determined by measuring the amount of drug released into phosphate buffer pH 6.8 at 37° C. via conventional high pressure liquid chromatography (HPLC).\nThe experiment was repeated in a solution at a higher pH, specifically pH 6.8. Briefly, the dissolution of SN-38 was measured either as SN-38 alone or from SN-38 containing micelles prepared as described in Example 2. The freeze dried cake produced in Example 2 was added to phosphate buffer pH 6.8 and the drug concentration was measured under the same conditions as the experiment using aqueous HCl at pH 1.2.",
  "data": [
    {"smiles": "CCc1c2c(nc3ccc(O)cc13)-c1cc3c(c(=O)n1C2)COC(=O)[C@]3(O)CC", "note": "[SN-38, 7-ethyl-10-hydroxy-camptothecin]", "values": [
      {"measurement": "dissolution behaviour", "value": "rapidly precipitates from solution"}
    ]}
  ]
}
